The record followed here is patent US9757317B2, “Cosmetic compositions and methods for inhibiting melanin synthesis” (The Procter & Gamble Company, priority 2014, dated 2017).

Where a name gives a salt, the structure may show the parent alone.

The test system of this assay is B16-F1 mouse melanoma cells. Description: Melanin Synthesis Assay. Format: cell-based. As for the experimental part:
A B16-F1 mouse melanoma cell line may be employed as an assay to measure melanin synthesis. The B16-F1 cells may be obtained from American Tissue Culture Collection, Virginia, USA. The cell culture medium that may be used in the assay may comprise 500 mL of Dulbecco's Modified Eagle's Medium (DMEM), 50 mL Fetal Bovine Serum (FBS), and 5 mL of penicillin-streptomycin liquid. B16-F1 cells that are cultured in this medium and grown to greater than 90% confluency synthesize melanin. While not intending to be bound by any theory, it is hypothesized that melanin synthesis is stimulated by the culture medium and/or stress induced by growth to a high confluency. The DMEM and FBS can be obtained from American Tissue Culture Collection and the penicillin-streptomycin liquid can be obtained from Invitrogen, Inc., California, USA. Equipment used in the assay include a CO2 incubator, such as a Form a Series Model 3110 by Therma Scientific, Massachusetts, USA; a hemocytometer, such as a Bright Line model by Hauser Scientific, Pennsylvania, USA; and a UV-Visible Spectrum Plate Reader, such as a SpectraMax250 from Molecular Devices, California, USA. The assay steps may include:
Day 0—Cell Growth: Warm the cell culture medium to 37° C. and place 29 mL into a T-150 flask. Add approximately 1×10^6 of B16-F1 passage 1 mouse cells to the T-150 flask and incubate for 3 days at 37° C., 5% CO2, 90% relative humidity, until ˜80% confluency;
Day 3—Initiate a 96 Well Plate: At day 3, trypsinize the cells from the T-150 flask and determine the concentration of cells using a hemocytometer. Initiate a 96 well plate with 2,500 cells per well in 100 microliters of cell culture medium. Incubate the plate at 37° C., 5% CO2, 90% relative humidity for about 2 days until at least 20% to 40% confluency;
Day 5—Decant the cell culture medium from the plate and replace with fresh culture medium (100 uL per well). Add 1 microliter of [test compound] diluted in a [water or DSMO] solvent. Multiple dilution ratios may be tested in order to generate a dose response curve, wherein preferably three wells are treated with each dilution ratio. Controls comprise wells having the cell culture medium, B16-F1 cells, and the solvent (control #1); wells comprising the cell culture medium and the solvent (control #2); and optionally wells comprising the cell culture medium, solvent and [test compound] when necessary to control for the [test compound] background color (control #3);
Day 7—Measure Melanin Production: Cells should have a confluency greater than ˜90%. […] Add 100 microliters of a 0.75% sodium hydroxide solution to each well. Read the 96 well plate using the UV-Vis Plate Reader at 410 nm to optically measure the amount of melanin produced between wells that are treated with [test compound] and control wells that are not treated with a test compound. Wells in which melanin is produced typically appear brownish in color. Wells in which little melanin is produced typically appear clear to light purple in color. Percentage of melanin synthesis inhibition is calculated by the following equation: […]
Where OD410 is the Optical Density at 410 nm as measured by the UV-Vis Spectrum Plate Reader.
When Control #3 is used, the formula for percentage melanin synthesis inhibition is: […]
Using generally the assay outlined above, melanin synthesis in treated B16-F1 cells was inhibited as compared to control cells as shown in Table 1.

Setting [1] is: test material (0.002 to 0.5%) combined with Bis/UP/Nia.
The mark [2] stands for this setting: test material (0.002 to 0.5%) combined with Bis/HD/Nia.

As for `CC(C)=CCC[C@](C)(O)[C@@H]1CC=C(C)CC1` [Sample 1, bisabolol], the “Average Melanin % Inhibition” value (Table 1, B16-F1 cells, 0.1% Bis, 0.00056% HD, 0.00011% UP, 0.00056% Nia where included) was found to be 2.2%.

Take `CCCCC(CC)COC(=O)CCCCC(=O)OCC(CC)CCCC` (stereo not shown) [Bis (2-ethylhexyl) Adipate, Bis (2-ethylhexyl) adipate]: the “Average Melanin % Inhibition” value under setting [1] is 42%.

For the compound `CCCCCCCCCCCCCCCCCCOCC(O)CO` (stereo not shown) [Sample 8, batyl alcohol], the “Average Melanin % Inhibition” value (Table 2, 0.03% Bat, 0.003% Bis, 0.0005% HD, 0.0001% UP, 0.0005% Nia where included) was 7%.

Consider `CCCCCCCCCCCCCCCCCC(=O)OCC(O)CO` (racemic) [1-Stearoyl rac-Glycerol, 1-Stearoyl-rac-glycerol], for which the “Average Melanin % Inhibition” value (test material (0.002 to 0.5%) combined with Bis/HD/UP/Nia) stood at 38%.

For `CCCCCCCCCCCCCCCC(=O)OCC` [Ethyl Palmitate, Ethyl palmitate], the “Average Melanin % Inhibition” value runs as follows: under setting [2], 82%; under setting [1], 84%.

As to `CCCCC(CC)COC(=O)/C=C\C(=O)OCC(CC)CCCC` (stereo not shown) [Bis (2-ethylhexyl) Maleate, Bis (2-ethylhexyl) maleate], the “Average Melanin % Inhibition” value came to 32% under setting [2] and 45% under setting [1].

`CCCCCCCCCCCCCCCCCCO` [Stearyl Alcohol, Stearyl alcohol]: the “Average Melanin % Inhibition” value runs as follows: under setting [2], 60%; under setting [1], 73%.

On to `CCCCCCCCCCC(O)CCCC` (stereo not shown) [5-Pentadecanol], for which the “Average Melanin % Inhibition” value under setting [2] is recorded as 46%.

Consider `CCCCC(CC)COC(=O)CCCCCCCCC(=O)OCC(CC)CCCC` (stereo not shown) [Bis (2-ethylhexyl) Sebacate, Bis (2-ethylhexyl) sebacate], for which the “Average Melanin % Inhibition” value by setting is: under setting [2], 79%; under setting [1], 88%.
